From patent publication US10711002B2, “Purine compounds and method for the treatment of cancer” (THE ROYAL INSTITUTION FOR THE ADVANCEMENT OF …, priority 2016, dated 2020)

What was measured:
Assay in all cases: Clonogenic assay
Type in all cases: cell-based
[1] = system: BT20 cells; conditions: BT20, 6 days of incubation
Method: (§1) Cancer cell lines: MDA-MB-231, BT-20, Panc-1, OVCAR-3, 4T1 and RENCA were obtained from ATCC. Epithelial breast adenocarcinoma cell line PMC42-LA, were kindly provided by Dr. Ackland. Mia-Paca cells were kindly provided by Dr. George Zogopoulos. All cancer cell lines were cultured in RPMI1640× with 10% fetal bovine serum with 1% penicillin/streptomycin, and maintained at 37° C. in 5% atmosphere of CO2. In the case of growth factor stimulation, cells were serum starved for no longer than 12H, and then stimulated with 20 ng/ml EGF for 40 minutes.
(§2) Clonogenic assays were also performed using standard techniques as previously described. Briefly, cells were harvested from exponential-phase cultures, counted and plated at densities of 200 cells per well of a 12-well plate. Twenty-four hours after plating, the compounds were delivered once at the mentioned concentration. Negative control was carried out by treating the cells with DMSO. After 6 days of incubation in the presence of the compounds, the cells were stained with 0.5% crystal violet in absolute ethanol, and colonies were counted using the machine GelCount™ Tumor Colony Counter from Oxford Optronix Ltd. Each experiment was done in triplicates.

[2] = system: OVCAR-3 cells; conditions: OVCAR-3, 6 days of incubation
Method: as §1, §2

[3] = system: Panc-1 cells; conditions: Panc-1, 6 days of incubation
Method: as §1, §2

Measured: colony forming ability

O=c1c2ccccc2[se]n1-c1nc(N[C@H]2CC[Se]C2)c2nc[nH]c2n1 [Compound 4]
Significant reduction: [1] | [2] | [3]
